# Source: article PMC5601359 (Journal of Medicinal Chemistry, 2017)
# Where two headings read alike, the source gives them in different places.
# Experiments:
# [1] = target: T1, HIV-1 IN (Human immunodeficiency virus type 1 group M subtype B, UniProt P12497); test: in vitro IN assay, 3′-processing; assay type: biochemical
# [2] = tested on: HIV-1 vector carrying WT IN; settings: read-out: EC50 WT; HOS cells, vector harboring WT IN; cited from earlier work
# [3] = tested on: HIV-1 vector carrying Y143R IN mutant; settings: cited from earlier work; for FC, fold change relative to WT, Y143R: EC50 of mutant/EC50 of WT; for EC50: read-out: EC50 Y143R, HOS cells, vector harboring Y143R IN
# [4] = tested on: HIV-1 vector carrying N155H IN mutant; settings: cited from earlier work; for FC, fold change relative to WT, N155H: EC50 of mutant/EC50 of WT; for EC50: read-out: EC50 N155H, HOS cells, vector harboring N155H IN
# [5] = tested on: HIV-1 vector carrying G140S/Q148H IN mutant; settings: cited from earlier work; for FC, fold change relative to WT, G140S/Q148H: EC50 of mutant/EC50 of WT; for EC50: read-out: EC50 G140S/Q148H, HOS cells, vector harboring G140S/Q148H IN
# [6] = tested on: human osteosarcoma (HOS) cells; settings: 50% reduction in the level of ATP in HOS cells; cited from earlier work
# [7] = tested on: HIV-1 vector carrying Y143R IN mutant; test: single-round HIV-1 infectivity assay, vector with Y143R IN; assay type: cell-based; settings: for FC, fold change relative to WT, Y143R: EC50 of mutant/EC50 of WT; for EC50: Human immunodeficiency virus 1, HOS, read-out: EC50 Y143R
# [8] = tested on: HIV-1 vector carrying N155H IN mutant; test: single-round HIV-1 infectivity assay, vector with N155H IN; assay type: cell-based; settings: for FC, fold change relative to WT, N155H: EC50 of mutant/EC50 of WT; for EC50: Human immunodeficiency virus 1, HOS, read-out: EC50 N155H; for fold improvement relative to DTG, N155H: EC50 of compound/EC50 of DTG
# [9] = tested on: HIV-1 vector carrying G140S/Q148H IN mutant; test: single-round HIV-1 infectivity assay, vector with G140S/Q148H IN; assay type: cell-based; settings: for FC, fold change relative to WT, G140S/Q148H: EC50 of mutant/EC50 of WT; for EC50: Human immunodeficiency virus 1, HOS, read-out: EC50 G140S/Q148H
# [10] = target: T1, HIV-1 IN; test: in vitro IN assay, strand transfer; assay type: biochemical
# [11] = in vitro; settings: human
# [12] = tested on: HIV-1 vector carrying WT IN; test: single-round HIV-1 infectivity assay, vector with WT IN; assay type: cell-based; settings: EC50 of compound/EC50 of DTG
# [13] = tested on: HIV-1 vector carrying G118R IN mutant; test: single-round HIV-1 infectivity assay, vector with G118R IN; assay type: cell-based; settings: EC50 of compound/EC50 of DTG
# [14] = tested on: HIV-1 vector carrying T66I IN mutant; test: single-round HIV-1 infectivity assay, vector with T66I IN; assay type: cell-based; settings: EC50 of compound/EC50 of DTG
# [15] = tested on: HIV-1 vector carrying E92Q IN mutant; test: single-round HIV-1 infectivity assay, vector with E92Q IN; assay type: cell-based; settings: EC50 of compound/EC50 of DTG
# [16] = tested on: HIV-1 vector carrying R263K IN mutant; test: single-round HIV-1 infectivity assay, vector with R263K IN; assay type: cell-based; settings: EC50 of compound/EC50 of DTG
# [17] = tested on: HIV-1 vector carrying H51Y IN mutant; test: single-round HIV-1 infectivity assay, vector with H51Y IN; assay type: cell-based; settings: EC50 of compound/EC50 of DTG
# [18] = tested on: HIV-1 vector carrying H51Y/R263K IN mutant; test: single-round HIV-1 infectivity assay, vector with H51Y/R263K IN; assay type: cell-based; settings: EC50 of compound/EC50 of DTG
# [19] = tested on: HIV-1 vector carrying G118R IN mutant; settings: cited from earlier work; for EC50: read-out: EC50 G118R, vector harboring G118R IN
# [20] = tested on: HIV-1 vector carrying T66I IN mutant; settings: cited from earlier work; for EC50: read-out: EC50 T66I, vector harboring T66I IN
# [21] = tested on: HIV-1 vector carrying E92Q IN mutant; settings: cited from earlier work; for EC50: read-out: EC50 E92Q, vector harboring E92Q IN
# [22] = tested on: HIV-1 vector carrying R263K IN mutant; settings: cited from earlier work; for EC50: read-out: EC50 R263K, vector harboring R263K IN
# [23] = tested on: HIV-1 vector carrying H51Y/R263K IN mutant; settings: cited from earlier work; for EC50: read-out: EC50 H51Y/R263K, vector harboring H51Y/R263K IN
# [24] = tested on: HIV-1 vector carrying H51Y IN mutant; settings: cited from earlier work; for EC50: read-out: EC50 H51Y, vector harboring H51Y IN
smiles,measurement,setting,value
"COC(=O)CNc1c(C(=O)NCc2ccc(F)cc2F)c(=O)n(O)c2nc(N3CCCCC3)ccc12 [5h, Methyl 2-((3-((2,4-Difluorobenzyl)carbamoyl)-1-hydroxy-2-oxo-7-(piperidin-1-yl)-1,2-dihydro-1,8-naphthyridin-4-yl)amino)acetate]",IC50,[1],> 333000 nM
"COC(=O)CNc1c(C(=O)NCc2ccc(F)cc2F)c(=O)n(O)c2nc(N3CCOCC3)ccc12 [5i, Methyl 2-((3-((2,4-Difluorobenzyl)carbamoyl)-1-hydroxy-7-morpholino-2-oxo-1,2-dihydro-1,8-naphthyridin-4-yl)amino)acetate]",IC50,[1],> 333000 nM
O=C(NCc1ccc(F)cc1F)c1c(O)c2cccnc2n(O)c1=O [5′a],EC50,[2],6.2 ± 2.9 nM
same,"FC, fold change relative to WT, Y143R",[3],2 ×
same,EC50,[3],11 ± 2 nM
same,"FC, fold change relative to WT, N155H",[4],5 ×
same,EC50,[4],31 ± 8 nM
same,"FC, fold change relative to WT, G140S/Q148H",[5],50 ×
same,EC50,[5],308 ± 125 nM
same,CC50,[6],137000 ± 20000 nM
Nc1c(C(=O)NCc2ccc(F)cc2F)c(=O)n(O)c2ncccc12 [5′d],EC50,[2],1.1 ± 0.7 nM
same,CC50,[6],> 250000 nM
COC(=O)CNc1c(C(=O)NCc2ccc(F)cc2F)c(=O)n(O)c2ncccc12 [5′g],"FC, fold change relative to WT, Y143R",[7],1 ×
same,EC50,[7],4.6 ± 2.2 nM
same,"FC, fold change relative to WT, N155H",[8],5 ×
same,EC50,[8],19 ± 7 nM
same,"FC, fold change relative to WT, G140S/Q148H",[9],9 ×
same,EC50,[9],36 ± 16 nM
"CC(=O)OCCCc1cnc2c(c1)c(N)c(C(=O)NCc1ccc(F)cc1F)c(=O)n2O [6b, 3-(5-Amino-6-((2,4-difluorobenzyl)carbamoyl)-8-hydroxy-7-oxo-7,8-dihydro-1,8-naphthyridin-3-yl)propyl Acetate]",IC50,"[10]; ST IC50, as stated in text",≤ 10 nM
"Nc1c(C(=O)NCc2ccc(F)cc2F)c(=O)n(O)c2ncc(CCCCCCOC(=O)c3ccccc3)cc12 [6c, 6-(5-Amino-6-((2,4-difluorobenzyl)carbamoyl)-8-hydroxy-7-oxo-7,8-dihydro-1,8-naphthyridin-3-yl)hexyl Benzoate]",IC50,"[10]; in vitro IC50 ST, gel-based protocol, Mg2+ cofactor",3300 ± 600 nM
same,"FC, fold change relative to WT, Y143R",[7],0.7 ×
same,EC50,[7],3.5 ± 1.2 nM
same,"FC, fold change relative to WT, N155H",[8],1 ×
same,EC50,[8],5.4 ± 1.9 nM
same,"FC, fold change relative to WT, G140S/Q148H",[9],4 ×
same,EC50,[9],21 ± 7.8 nM
same,CC50,[11],14400 ± 4800 nM
"Nc1c(C(=O)NCc2ccc(F)cc2F)c(=O)n(O)c2ncc(CCC(=O)O)cc12 [6i, 3-(5-Amino-6-((2,4-difluorobenzyl)carbamoyl)-8-hydroxy-7-oxo-7,8-dihydro-1,8-naphthyridin-3-yl)propanoic Acid]",IC50,"[10]; ST IC50, as stated in text",≤ 10 nM
"Nc1c(C(=O)NCc2ccc(F)cc2F)c(=O)n(O)c2ncc(CCC(=O)NCCO)cc12 [6n, 4-Amino-N-(2,4-difluorobenzyl)-1-hydroxy-6-(3-((2-hydroxyethyl)amino)-3-oxopropyl)-2-oxo-1,2-dihydro-1,8-naphthyridine-3-carboxamide]",IC50,"[10]; ST IC50, as stated in text",< 10 nM
"Nc1c(C(=O)NCc2ccc(F)cc2F)c(=O)n(O)c2ncc(/C=C/C(=O)NCCO)cc12 [6o, (E)-4-Amino-N-(2,4-difluorobenzyl)-1-hydroxy-6-(3-((2-hydroxyethyl)amino)-3-oxoprop-1-en-1-yl)-2-oxo-1,2-dihydro-1,8-naphthyridine-3-carboxamide]",IC50,"[10]; ST IC50, as stated in text",< 10 nM
"COC(=O)CCc1cnc2c(c1)c(N)c(C(=O)NCc1ccc(F)cc1F)c(=O)n2O [6p, Methyl 3-(5-Amino-6-((2,4-difluorobenzyl)carbamoyl)-8-hydroxy-7-oxo-7,8-dihydro-1,8-naphthyridin-3-yl)propanoate]",IC50,"[10]; ST IC50, as stated in text",≤ 10 nM
same,"fold improvement relative to DTG, WT",[12],0.67 ± 0.15 (0.42×)
same,"fold improvement relative to DTG, Y143R",[7]; EC50 of compound/EC50 of DTG,0.67 ± 0.23 (0.16×)
same,"fold improvement relative to DTG, N155H",[8],2.3 ± 0.2 (0.64×)
same,"fold improvement relative to DTG, G140S/Q148H",[9]; EC50 of compound/EC50 of DTG,5.3 ± 1.8 (0.91×)
same,"fold improvement relative to DTG, G118R",[13],4.8 ± 1.5 (0.37×)
same,"fold improvement relative to DTG, T66I",[14],0.53 ± 0.06 (0.59×)
same,"fold improvement relative to DTG, E92Q",[15],2.0 ± 1.1 (0.87×)
same,"fold improvement relative to DTG, R263K",[16],0.5 ± 0.0 (0.05×)
same,"fold improvement relative to DTG, H51Y",[17],0.63 ± 0.30 (0.20×)
same,"fold improvement relative to DTG, H51Y/R263K",[18],2.4 ± 0.8 (0.15×)
Nc1c(C(=O)NCc2ccc(F)cc2F)c(=O)n(O)c2ncc(CCCCCO)cc12 [6′b],"fold improvement relative to DTG, WT",[12],1.3 ± 0.2 (0.81×)
same,"fold improvement relative to DTG, N155H",[8],2.4 ± 0.8 (0.67×)
same,"fold improvement relative to DTG, G118R",[13],5.3 ± 1.6 (0.41×)
same,"fold improvement relative to DTG, R263K",[16],2.6 ± 0.1 (0.24×)
same,"fold improvement relative to DTG, H51Y/R263K",[18],2.6 ± 1.4 (0.16×)
same,CC50,[6],> 250000 nM
"C[C@@H]1CCO[C@H]2Cn3cc(C(=O)NCc4ccc(F)cc4F)c(=O)c(O)c3C(=O)N12 [DTG (3), dolutegravir]",EC50,[2],1.6 ± 0.9 nM
same,EC50,[4],3.6 ± 1.3 nM
same,EC50,[19],13 ± 5 nM
same,EC50,[20],0.9 ± 0.8 nM
same,EC50,[21],2.3 ± 0.4 nM
same,EC50,[22],11 ± 3 nM
same,EC50,[23],16 ± 2 nM
same,CC50,[6],> 250000 nM
"COc1cc2c(cc1Cc1cccc(Cl)c1F)c(=O)c(C(=O)O)cn2[C@H](CO)C(C)C [EVG (2), elvitegravir]",EC50,[2],6.4 ± 0.8 nM
same,"FC, fold change relative to WT, Y143R",[3],1 ×
same,EC50,[3],7.9 ± 2.3 nM
same,"FC, fold change relative to WT, N155H",[4],14 ×
same,EC50,[4],90 ± 18 nM
same,"FC, fold change relative to WT, G140S/Q148H",[5],891 ×
same,EC50,[5],5700 ± 1100 nM
same,"FC, fold change relative to WT, G118R",[19]; EC50 of mutant/EC50 of WT,3 ×
same,EC50,[19],21 ± 10 nM
same,"FC, fold change relative to WT, T66I",[20]; EC50 of mutant/EC50 of WT,10 ×
same,EC50,[20],66 ± 1 nM
same,"FC, fold change relative to WT, E92Q",[21]; EC50 of mutant/EC50 of WT,24 ×
same,EC50,[21],154 ± 34 nM
same,"FC, fold change relative to WT, R263K",[22]; EC50 of mutant/EC50 of WT,2 ×
same,EC50,[22],10 ± 6 nM
same,"FC, fold change relative to WT, H51Y",[24]; EC50 of mutant/EC50 of WT,0.7 ×
same,EC50,[24],4.5 ± 2.1 nM
same,"FC, fold change relative to WT, H51Y/R263K",[23]; EC50 of mutant/EC50 of WT,8 ×
same,EC50,[23],53 ± 18 nM
same,CC50,[6],> 250000 nM
"Cc1nnc(C(=O)NC(C)(C)c2nc(C(=O)NCc3ccc(F)cc3)c(O)c(=O)n2C)o1 [RAL (1), raltegravir]",EC50,[2],4 ± 2 nM
same,EC50,[19],36 ± 5 nM
same,EC50,[20],2.8 ± 0.4 nM
same,EC50,[21],30 ± 10 nM
same,EC50,[22],5.7 ± 2.3 nM
same,EC50,[24],3.4 ± 0.2 nM
same,EC50,[23],6 ± 2.3 nM
same,CC50,[6],> 250000 nM
